Reference: patent US12421257B2, “Compositions and methods for inhibiting group II intron RNA” (YALE UNIVERSITY, priority 2018, dated 2025)
Converted amounts (≈) assume the structure as drawn. Like-named read-outs stand apart in the source and are kept apart here.

What was measured:
[1] = tested on: ai5γ group II intron (D135 ribozyme); assay: Fluorescent D135 ribozyme cleavage assay (IC50); assay type: biochemical, Saccharomyces cerevisiae; details: for IC50: D135 ribozyme cleavage of substrate 17/2 DL, 100 mM MgCl2, 500 mM KCl, 37° C., 10 minutes; for In vitro inhibitory activity, SAR statement (in words): relative to parent scaffold
Procedure, shortened: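 D135 ribozyme (20 nM) with double-labeled substrate 17/2 DL (20 nM) in 50 mM MOPS pH 7.0, 100 mM MgCl2, 0.5 M KCl; 19 inhibitor concentrations, 5 nM–1 mM, 10 min at 37 °C, EDTA quench, fluorescence read. Triplicates fit to 4-parameter logistic for IC50; mean±s.e.m.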

HEK-293T cells = assay: Cytotoxicity in HEK-293T cells (Cell Titer Glo); assay type: cell-based, human; details: for IC50: Homo sapiens
S. cerevisiae = assay: Yeast respiration assay in S. cerevisiae (MIC in YPD / YPGE); assay type: cell-based, Saccharomyces cerevisiae; details: Saccharomyces cerevisiae, 30° C.
Protocol: Yeast respiration assays were conducted either in liquid YPD media (BD Bacto Yeast Extract, BD Bacto Peptone, 2% glucose) or in YPGE media (BD Bacto Yeast Extract, BD Bacto Peptone, 3% glycerol, 3% ethanol), essentially as described for the antifungal MIC assays (see below). To initiate these experiments, 100 μl of a fresh stock solution was prepared for each compound (3.2 mg/ml for Amphotericin B and 12.8 mg/ml for each test compounds) in DMSO. This concentrated stock solution was placed in the first well of 12-well row on a 96-well plate. The subsequent nine wells in this row contained 50 μl of DMSO for serial dilution. From the first well, 50 μl of the compound stock was withdrawn, transferred to the second well and mixed. This process was repeated from the second and subsequent wells, resulting in a 1:2 serial dilution of the stock into DMSO. Wells 11 and 12 contained DMSO only, to be used as no compound control and sterility control, with no inoculum added, respectively. After preparing this plate, 2.5 μl from each of the 12 wells was transferred to the wells of a separate 96-well plate, each of which contained 122.5 μl of YPD or YPGE medium, resulting in a set of serial dilutions of compound into growth media in a volume of 125 μl. Then 50 μl from each of these dilutions were transferred onto a third 96-well plate (the assay plate) and mixed with an equal volume (50 μl) of freshly prepared yeast inoculum in YPD or YPGE medium set to provide 0.5×10^3 to 2.5×10^3 colony forming units per 1 mL (wells 1-11), or YPD/YPGE alone (sterility control, well 12). The final compound concentration range of the assay was 0.25-128 μg/ml for test compounds and 0.0625-32 μg/ml for Amphotericin B. The final concentration of DMSO was 1%. Plates were incubated at 30° C. and visually analyzed for turbidity after 24 and 48 hours of incubation. The lowest compound concentration at which no growth was apparent is reported as the MIC (Table 1). All experiments were performed in triplicate.

[2] = cytotoxicity, 24 hours with compound, read-out: IC50 HEK-293
[3] = YPD medium, read-out: MIC in YPD (glucose)
[4] = YPGE medium, read-out: MIC in YPGE (glycerol)
[5] = 72 hours growth in the presence of compounds, read-out: IC50 HEK-293T viability after 72-hour incubation

SMILES	IC50 [1]	In vitro inhibitory activity, SAR statement (in words) [1]	IC50 (HEK-293T cells; [2])	MIC (S. cerevisiae; [3])	MIC (S. cerevisiae; [4])	IC50 (HEK-293T cells; [5])	Toxicity in human cells (in words) (HEK-293T cells; 24 hours incubation)
O=C1/C(=C/c2cc(O)cc(O)c2)Oc2cc(O)cc(O)c21 [APY-014, (Z)-2-(3,5-Dihydroxybenzylidene)-4,6-dihydroxybenzofuran-3(2H)-one]	266 ± 37 µM	nearly complete loss of activity	> 64 µg/mL	> 128 µg/mL	> 128 µg/mL		
Cc1ccncc1-c1ccc2oc(C(=O)c3cc(O)c(O)c(O)c3)cc2c1 [APY-081, 5-{[5-(4-Methylpyridin-3-yl)-1-benzofuran-2-yl]carbonyl}benzene-1,2,3-triol]	6.8 ± 1.1 µM		> 128 µg/mL	> 128 µg/mL	32 µg/mL (≈ 88.6 µM)	0.79 ± 0.09 µg/mL	
O=C(c1cc(O)c(O)c(O)c1)c1cc2cc(-c3ccc(CO)cc3)ccc2o1 [APY-084, 5-({5-[4-(Hydroxymethyl)phenyl]-1-benzofuran-2-yl}carbonyl)benzene-1,2,3-triol]	0.9 ± 0.1 µM		1.1 ± 0.1 µg/mL	> 128 µg/mL	16 to 32 µg/mL (≈ 42.5 to 85 µM)	1 ± 0.04 µg/mL	
Br.CCN(CC)Cc1ccc(-c2ccc3oc(C(=O)c4cc(O)c(O)c(O)c4)cc3c2)cc1 [APY-090, 5-[(5-{4-[(Diethylamino)methyl]phenyl}-1-benzofuran-2-yl)carbonyl]benzene-1,2,3-triol hydrobromide]	2.1 ± 0.4 µM		1.7 ± 0.6 µg/mL	> 128 µg/mL	64 µg/mL		
CCCCNS(=O)(=O)c1ccc(-c2ccc(-c3nc(-c4cc(O)c(O)c(O)c4)cs3)cc2)cc1 [APY-093, N-Butyl-4-{4-[4-(3,4,5-trihydroxyphenyl)-1,3-thiazol-2-yl]phenyl}benzene-1-sulfonamide]	86 ± 3 µM	substantial loss of activity	7.2 ± 1.5 µg/mL	> 128 µg/mL	> 128 µg/mL		
CC(=O)c1ccc(-c2ccc3oc(C(=O)c4cc(O)c(O)c(O)c4)cc3c2)cc1 [APY-101, 1-(4-{2-[(3,4,5-Trihydroxyphenyl)carbonyl]-1-benzofuran-5-yl}phenyl)ethan-1-one]	1.5 ± 0.1 µM		> 128 µg/mL	> 128 µg/mL	32 µg/mL (≈ 82.4 µM)	1.3 ± 0.1 µg/mL	did not show toxicity
